From PMC12851022, “Targeting the Spliceosomal Protein USP39 Through Allosteric Ligands and PROTAC‐Induced Degradation” (Angewandte Chemie (International Ed. in English), 2025)

How the values were obtained:
[1] = target: T1, USP39_FL (Homo sapiens, UniProt Q53GS9); assay: Thermal shift assay (TSA) with full-length USP39; format: binding
T1 construct: made in house
T1 sequence (Q53GS9 1-565): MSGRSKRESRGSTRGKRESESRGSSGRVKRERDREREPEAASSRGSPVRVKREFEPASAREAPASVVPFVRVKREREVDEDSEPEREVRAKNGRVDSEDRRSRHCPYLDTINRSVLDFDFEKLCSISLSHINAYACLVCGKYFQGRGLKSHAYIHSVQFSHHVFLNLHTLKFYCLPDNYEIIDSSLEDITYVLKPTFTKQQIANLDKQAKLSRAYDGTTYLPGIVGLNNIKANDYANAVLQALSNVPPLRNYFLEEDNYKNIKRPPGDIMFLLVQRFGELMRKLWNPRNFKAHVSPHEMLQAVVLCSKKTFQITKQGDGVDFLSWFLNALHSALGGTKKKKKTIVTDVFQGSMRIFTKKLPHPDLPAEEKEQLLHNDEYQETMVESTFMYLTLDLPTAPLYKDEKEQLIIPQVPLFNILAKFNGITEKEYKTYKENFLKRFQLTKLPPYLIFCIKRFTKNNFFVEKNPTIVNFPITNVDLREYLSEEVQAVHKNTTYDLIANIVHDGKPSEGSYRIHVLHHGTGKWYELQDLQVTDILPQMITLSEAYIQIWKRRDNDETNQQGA
From the text: To identify potential USP39 binders, we purified full‐length USP39 protein (USP39_FL, Figure SI1B) and conducted chemical screening using two complementary strategies. First, an in‐house bioactive collection of approximately 200 small molecules, previously assembled from our studies on cellular reprogramming, was screened using thermal shift assay (TSA, Figure 1a).^[ [2], [23], [24], [25], [26] ^] […] In parallel, a DNA‐encoded library (DEL) screening comprising roughly 600 million unique small molecules was performed. Each DEL compound carries a covalently attached DNA barcode that enables identification after target binding. For this screening, purified USP39_FL protein was immobilized on magnetic beads and incubated with the library; unbound molecules were washed away, and bound DNA‐tagged compounds were eluted. […]
Figure 1 Chemical screening identified thiazole‐containing compounds as USP39 binders. a) AlphaFold3‑predicted structure of full‐length USP39 (USP39_FL) showing three domains: an N‑terminal RS‑like domain (grey), a central zinc‑finger (ZNF) domain (cyan), and a C‑terminal USP domain (gold). […] The ΔT values are therefore given under an empty label, with the protein construct written in front. / Panels b and d: the print is small, so the digits in 55.0, 57.5, -2.5, -2.0 and -1.5 are best readings. […]

[2] = target: T2, USP39 / VHL_m ternary complex (Homo sapiens, UniProt P40337+Q53GS9, DEL91-121); assay: FRET assay of ternary complex formation in cells, VHL_m; format: cell-based; details: in the presence of MLN4924
T2 construct: expressed in transfected cells; host or cells: HEK293T
T2 sequence (P40337 with tags, fused parts or gaps DEL91-121, one chain of several): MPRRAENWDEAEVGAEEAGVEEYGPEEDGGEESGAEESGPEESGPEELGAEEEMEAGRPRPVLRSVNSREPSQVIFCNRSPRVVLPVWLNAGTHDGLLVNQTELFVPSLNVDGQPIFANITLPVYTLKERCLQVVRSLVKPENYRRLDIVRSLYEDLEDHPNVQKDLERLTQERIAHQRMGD
Description: (§1) Figure 4 Effective and selective degradation of USP39 in cells by USP39‐PROTACs. a) Optimization of cellular degradation assay in HeLa cells transiently overexpressing USP39‑OFP (HeLa‐USP39‐OFP). […] GAPDH was used as a loading control. g) Proteasome dependence of USP39 degradation. HeLa‐WT cells were co‐treated with MG132 (0.25 µM) or DMSO control and USP39_PROTAC_V1 for 24 h ST. h) Representative immunofluorescence images of HeLa‐USP39_OFP cells treated with DMSO (NT), USP39_PROTAC_V1 (10 nM, 24 h), or USP39_PROTAC_V1 + MLN4924 (1 µM), stained for USP39 (red) and nuclei (blue). i) Quantification of USP39 degradation by fluorescence microscopy, showing DC50 values of 13 nM without MLN4924 (orange) and 204 nM with MLN4924 (blue) (MLN4924 = 5 uM). j) VHL‐dependence of PROTAC‐induced degradation. Schematic of PROTAC recruitment to VHL via hydroxyl‐proline interactions (His115, Ser111). Western blot comparing USP39 levels in VHL WT and VHL KO HeLa cells treated with USP39_PROTAC_V1. k) Fluorescence assay in HEK293T cells co‐expressing USP39‑OFP and either VHL_WT‑EGFP or VHL_m (Δ91–121). […] Comparison of untreated (NT) and USP39_PROTAC_V1–treated (10 nM, 24 h) samples. Percent spliced/unspliced (S/U) ratios are shown, reflecting USP39‐deficiency–associated splicing defects. Data represent at least four independent biological replicates. […]

[3] = target: T3, USP39 (Homo sapiens, UniProt Q53GS9); assay: Western blot of USP39 levels in VHL KO HeLa cells; format: cell-based; design: endogenous in cells; host or cells: VHL-KO HeLa
T3 sequence (Q53GS9 1-565): T1 sequence (Q53GS9 1-565)
Description: as §1

∆T (T max_Compound − T max_USP39), USP39_FL [1]: comparable to that induced by USP39_B1
FRET signal of ternary complex formation [2]: minimal signal
USP39 degradation in VHL-KO HeLa cells [3]: significantly attenuated
SMILES: Cc1ncsc1-c1ccc(CNC(=O)C2CC(O)CN2C(=O)C(NC(=O)CCOCCOCCOCCNC(=O)c2csc(Nc3ccc(Cl)cc3)n2)C(C)(C)C)cc1 (stereo not drawn) [USP39_PROTAC_V1]
